This test has as its system Mycobacterium tuberculosis strain H37Rv. The experiment in a line: Screen against Mycobacterium tuberculosis strain H37Rv by serial dilution. Type of test: cell-based. Conditions: M. tuberculosis H37Rv. From the text:
All of the compounds were screened against Mycobacterium tuberculosis strain H37Rv by serial dilution. The minimum inhibitory concentration and degree of inhibition is presented.
For the compound `N=C(NCCCCCCNC(=N)NC(=N)Nc1ccc(Cl)cc1)NC(=N)Nc1ccc(Cl)cc1.Sc1nc2ccccc2s1.Sc1nc2ccccc2s1` [Compound 5, chlorhexidine di-2-mercaptobenzthiazole], the “% Inhibition (degree of inhibition)” value turned out to be 90% and the “MIC (minimum inhibitory concentration)” value stood at 1.56 µg/mL.

In the case of `CCCCCCCCCCCC(=O)O.NC(=NCCCCCCN=C(N)N=C(N)Nc1ccc(Cl)cc1)N=C(N)Nc1ccc(Cl)cc1` [Compound 6, chlorhexidine dilaurate], the “% Inhibition (degree of inhibition)” value is given as 99% and the “MIC (minimum inhibitory concentration)” value turned out to be 3.13 µg/mL.

Regarding `N=C(NCCCCCCNC(=N)NC(N)=Nc1ccc(Cl)cc1)NC(N)=Nc1ccc(Cl)cc1.NCCCC(O)(P(=O)(O)O)P(=O)(O)O.NCCCC(O)(P(=O)(O)O)P(=O)(O)O` [Compound 7, chlorhexidine di [4-amino-1-hydroxybutylidene] bis-phosphonate], the “% Inhibition (degree of inhibition)” value is 94% and the “MIC (minimum inhibitory concentration)” value is 3.13 µg/mL.

In the case of `N=C(NCCCCCCNC(=N)NC(=N)Nc1ccc(Cl)cc1)NC(=N)Nc1ccc(Cl)cc1.Oc1ccccc1-c1ccccc1.Oc1ccccc1-c1ccccc1` [Compound 9, chlorhexidine di-ortho phenyl phenol], the “% Inhibition (degree of inhibition)” value is recorded as 99% and the “MIC (minimum inhibitory concentration)” value was 3.13 µg/mL.

As for `CCCCCCCCCCCCCCCCCC(=O)O.CCCCCCCCCCCCCCCCCC(=O)O.N=C(NCCCCCCNC(=N)NC(=N)Nc1ccc(Cl)cc1)NC(=N)Nc1ccc(Cl)cc1` [Compound 11, chlorhexidine distearate], the “% Inhibition (degree of inhibition)” value turned out to be 99% and the “MIC (minimum inhibitory concentration)” value came to 3.13 µg/mL.

With “Isoniazide dodecyl benzene sulfonate [Compound 2]”, the “% Inhibition (degree of inhibition)” value was determined as 99% and the “MIC (minimum inhibitory concentration)” value was found to be 0.78 µg/mL.

For the compound “N-cocoylamide-L-argimine ethyl ester triclosanate [Compound 3]”, the “% Inhibition (degree of inhibition)” value came out at 94% and the “MIC (minimum inhibitory concentration)” value was 1.56 µg/mL.

As for “chlorhexidine beta cyclodextrin sulfobutyl ether [Compound 8]”, the “% Inhibition (degree of inhibition)” value turned out to be 94% and the “MIC (minimum inhibitory concentration)” value was found to be 3.13 µg/mL.

In the case of chlorhexidine dithymol [Compound 4], the “% Inhibition (degree of inhibition)” value is 98% and the “MIC (minimum inhibitory concentration)” value was 1.56 µg/mL.

(Values after US20060287257A1, “Pharmaceutical compositions to treat diseases caused by mycobacterium” (priority 2005, published 2006).)
